In brackets after ≈: the same amount, converted by molar mass.
Experiments:
[1] = 2:1 v/v methanol/water mixture at 0° C.; cited from earlier work
[2] = cited from earlier work
[3] = Stability studies of 50:50 intimate mixture under stress conditions (Form I to Form II ratio by XRPD); type: physicochemical; conditions: milling, micronization, or drying at about 90° C. for prolonged periods
Protocol: Experimental conditions for performing the XRPD analysis for quantification were as follows: Process the diffraction peak for Form II≈21.15° (2θ) with constant smooth factor of 0.07 to check the detection of Form II and for the quantification of Form II the area of Form II peak and reference peak of Form I were taken. The Form I and Form II areas of two preparations of the test sample were noted. Then average the Form I and Form II areas. The percentage of Form II in Form I is calculated by the following formula: % of Form II=[(S2/S1)÷K=(S2/S1)]×100 • S1=Area of peak corresponding to Form I • S2=Area of peak corresponding to Form II K=Response constant for Form II relative to Form I. The areas of the peaks associated with Form I and Form II (characteristic peaks) were measured using Bruker X-ray diffraction evaluation software. From these areas, the response constant for Form II relative to Form I was determined. The value for the K factor was 0.32. A 50:50 weight ratio intimate mixture of aprepitant Form I and Form II prepared using the process of Example 12 was subjected to different conditions to determine the stability of the mixture under stress conditions.

| SMILES | solubility [1] | thermodynamic stability compared with other crystalline forms ([2]; compared with Form II) | hygroscopicity ([2]; compared with other crystalline forms) | conversion to Form I upon stress conditions [3] | numeric ratio of solubilities (Form II vs Form I) [1] |
| --- | --- | --- | --- | --- | --- |
| C[C@@H](O[C@H]1OCCN(Cc2n[nH]c(=O)[nH]2)[C@H]1c1ccc(F)cc1)c1cc(C(F)(F)F)cc(C(F)(F)F)c1 [Form I, 5-[[(2R,3S)-2-[(1R)-1-[3,5-bis(trifluoromethyl)phenyl]ethoxy]-3-(4-fluorophenyl)-4-morpholinyl]methyl]-1,2-dihydro-3H-1,2,4-triazol-3-one] | 900 ± 100 µg/mL (≈ 1680 µM) | superior thermodynamic stability | non-hygroscopic | – | – |
| C[C@@H](O[C@H]1OCCN(Cc2n[nH]c(=O)[nH]2)[C@H]1c1ccc(F)cc1)c1cc(C(F)(F)F)cc(C(F)(F)F)c1 [5-[[(2R,3S)-2-[(1R)-1-[3,5-bis(trifluoromethyl)phenyl]ethoxy]-3-(4-fluorophenyl)-4-morpholinyl]methyl]-1,2-dihydro-3H-1,2,4-triazol-3-one] | – | – | – | does not convert to the more stable Form I | – |
| C[C@@H](O[C@H]1OCCN(Cc2n[nH]c(=O)[nH]2)[C@H]1c1ccc(F)cc1)c1cc(C(F)(F)F)cc(C(F)(F)F)c1 [Form II, 5-[[(2R,3S)-2-[(1R)-1-[3,5-bis(trifluoromethyl)phenyl]ethoxy]-3-(4-fluorophenyl)-4-morpholinyl]methyl]-1,2-dihydro-3H-1,2,4-triazol-3-one] | 1300 ± 200 µg/mL (≈ 2430 µM) | – | – | – | 1.4 |

Reference: patent US8217039B2, “Aprepitant polymorph mixtures” (Dr. Reddy's Laboratories Ltd., priority 2006, dated 2012)
